According to patent US9079866B2, “Flap modulators” (JANSSEN PHARMACEUTICA NV, priority 2013, dated 2015):
Where a name gives a salt, the structure may show the parent alone. Read-outs that look alike come from different tables or passages of the source.

How the values were obtained:
human FLAP = human FLAP (Homo sapiens (Human), UniProt P20292); assay: FLAP binding assay (HTRF format)
Procedure, shortened: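 Samples were run in duplicate on each of two assay plates, the results were averaged, and the signal was expressed as an HTRF ratio.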

[1] = test system: leukotriene pathway in human whole blood (LTB4 levels); assay: Human whole blood assay (A23187-stimulated LTB4); format: cell-based; details: read-out: LTB4 IC50 1:1
Procedure, shortened: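 Compounds are pre-incubated 15 min at 37° Celsius in RPMI-diluted (1:1) heparinised whole blood before a 30 min A23187 stimulus (7 μg/mL). Plasma LTB4 is read by immunoassay kit, with IC50 calculated from a 4-parameter equation.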

[2] = human FLAP wild type, HTRF format, average of two plates, duplicates
[3] = Homo sapiens, human whole blood diluted 1:1 in RPMI, A23187-stimulated LTB4
[4] = Homo sapiens, human whole blood diluted 1:1, A23187-stimulated
[5] = read-out: FLAP Binding wild type HTRF Ki

Sequence of human FLAP (P20292 whole entry): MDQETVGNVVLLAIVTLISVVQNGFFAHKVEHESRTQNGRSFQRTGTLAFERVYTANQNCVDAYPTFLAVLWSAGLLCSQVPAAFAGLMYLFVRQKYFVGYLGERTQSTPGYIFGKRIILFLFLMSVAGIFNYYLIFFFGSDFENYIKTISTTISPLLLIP

| Ki (human FLAP; [2]) [nM] | IC50 [1, 3] [nM] | Ki (human FLAP; wild type FLAP, HTRF format) [nM] | IC50 [1, 4] [nM] | Compound | also measured |
| --- | --- | --- | --- | --- | --- |
| 3 | 111 | – | – | Nc1ncc(-c2ccc(-c3ccccc3S(=O)(=O)Nc3ccccc3)cc2F)cn1 [Example 285, 4′-(2-Aminopyrimidin-5-yl)-3′-fluoro-N-phenylbiphenyl-2-sulfonamide trifluoroacetic acid salt] | – |
| – | – | 15 | 155 | CN(c1ccccc1-c1ccc(-c2cnc3[nH]ccc3n2)c(F)c1)S(C)(=O)=O [Example 492, N-[3′-Fluoro-4′-(5H-pyrrolo[2,3-b]pyrazin-2-yl)biphenyl-2-yl]-N-methylmethanesulfonamide] | – |
| – | – | 54 | 444 | CC(C)Oc1ccccc1-c1ccc(-c2cnc(N)cn2)c(F)c1 [Example 487, 5-[3-Fluoro-2′-(1-methylethoxy)biphenyl-4-yl]pyrazin-2-amine] | – |
| 1 | 7 | – | – | Nc1cnc(-c2ccc(-c3ccccc3S(=O)(=O)NC[C@H](O)c3ccccc3)cc2F)cn1 [Example 117, (R)-4′-(5-Aminopyrazin-2-yl)-3′-fluoro-N-(2-hydroxy-2-phenylethyl)-[1,1′-biphenyl]-2-sulfonamide] | – |
| 205 | 219 | – | – | CNS(=O)(=O)Cc1ccccc1-c1ccc(-c2cnc(N)cn2)c(F)c1 [Example 220, 1-[4′-(5-Aminopyrazin-2-yl)-3′-fluorobiphenyl-2-yl]-N-methylmethanesulfonamide formic acid salt] | – |
| 2 | 37 | – | – | C[C@@H](CO)NS(=O)(=O)c1ccccc1-c1ccc(-c2cnc3c(c2)OCCN3)c(F)c1 [Example 388, 4′-(3,4-Dihydro-2H-pyrido[3,2-b][1,4]oxazin-7-yl)-3′-fluoro-N-[(1S)-2-hydroxy-1-methylethyl]biphenyl-2-sulfonamide] | – |
| 5 | 150 | – | – | CC(C)C[C@@H](CO)NS(=O)(=O)c1ccccc1-c1ccc(-c2cnc(N)cn2)c(F)c1 [Example 79, 4′-(5-Aminopyrazin-2-yl)-3′-fluoro-N-[(1S)-1-(hydroxymethyl)-3-methylbutyl]biphenyl-2-sulfonamide] | – |
| 199 | 302 | – | – | CS(=O)(=O)CCCS(=O)(=O)c1ccccc1-c1ccc(-c2cnc(N)cn2)c(F)c1 [Example 246, 5-(3-Fluoro-2′-{[3-(methylsulfonyl)propyl]sulfonyl}biphenyl-4-yl)pyrazin-2-amine hydrochloride] | – |
| 10 | 83 | – | – | Nc1cnc(-c2ccc(-c3ccccc3S(=O)(=O)C3CC3)cc2F)cn1 [Example 197, 5-[2′-(Cyclopropylsulfonyl)-3-fluorobiphenyl-4-yl]pyrazin-2-amine] | – |
| – | – | 8 | 116 | CC(C)(C)NS(=O)(=O)c1ccccc1-c1ccc(-c2coc(N)n2)c(F)c1 [Example 576, 4′-(2-Amino-1,3-oxazol-4-yl)-N-tert-butyl-3′-fluorobiphenyl-2-sulfonamide] | – |
| 1 | 47 | – | – | C[C@@H](CO)NS(=O)(=O)c1ccccc1-c1ccc(-c2cnc3[nH]ccc3c2)c(F)c1 [Example 362, 3′-Fluoro-N-[(1S)-2-hydroxy-1-methylethyl]-4′-(1H-pyrrolo[2,3-b]pyridin-5-yl)biphenyl-2-sulfonamide] | – |
| – | – | 10 | 91 | CC(C)(C)NS(=O)(=O)c1ccccc1-c1ccc(-c2csc(N)n2)c(F)c1 [Example 577, 4′-(2-Amino-1,3-thiazol-4-yl)-N-tert-butyl-3′-fluorobiphenyl-2-sulfonamide] | – |
| – | – | 28.7 | 53.9 | Cc1cc(C)nc(Oc2ccccc2-c2ccc(-c3cnc(N)cn3)c(F)c2)n1 [Example 608, 5-{2′-[(4,6-Dimethylpyrimidin-2-yl)oxy]-3-fluorobiphenyl-4-yl}pyrazin-2-amine] | – |
| 25 | 31 | – | – | O=S(=O)(c1ccccc1-c1ccc(-c2cnc3[nH]ccc3n2)c(F)c1)N1CCCC1 [Example 372, 2-[3-Fluoro-2′-(pyrrolidin-1-ylsulfonyl)biphenyl-4-yl]-5H-pyrrolo[2,3-b]pyrazine] | – |
| 2 | – | – | – | C[C@@H](NS(=O)(=O)c1ccccc1-c1ccc(-c2cnc(N)cn2)c(F)c1)C(F)(F)F [Example 127, (R)-4′-(5-Aminopyrazin-2-yl)-3′-fluoro-N-(2,2,2-trifluoro-1-methylethyl)biphenyl-2-sulfonamide] | IC50 ([1]; human whole blood diluted 1:1 in RPMI, A23187-stimulated LTB4): 35 nM |
| – | – | 13.7 | 56.5 | C[C@H](CO)NS(=O)(=O)c1ccccc1-c1ccc(-c2ncc(N)nc2C#N)c(F)c1 [Example 710, 4′-(5-Amino-3-cyanopyrazin-2-yl)-3′-fluoro-N-[(1R)-2-hydroxy-1-methylethyl]biphenyl-2-sulfonamide] | – |
| – | – | 113 | 1410 | COc1ccccc1-c1ccc(-c2cnc(N)cn2)c(F)c1 [Example 473, 5-(3-Fluoro-2′-methoxybiphenyl-4-yl)pyrazin-2-amine] | – |
| 5 | 52 | – | – | Nc1cnc(-c2ccc(-c3ccccc3SCC3CNC(=O)O3)cc2F)cn1 (racemic) [Example 203, racemic 5-({[4′-(5-Aminopyrazin-2-yl)-3′-fluorobiphenyl-2-yl]sulfanyl}methyl)-1,3-oxazolidin-2-one] | – |

More lines, now with the values behind:

| Compound | Ki (human FLAP; [2]) [nM] | IC50 [1, 3] [nM] | Ki (human FLAP; wild type FLAP, HTRF format) [nM] | IC50 [1, 4] [nM] | also measured |
| --- | --- | --- | --- | --- | --- |
| O=S1(=O)CCN(S(=O)(=O)c2ccccc2-c2ccc(-c3cnc4c(c3)OCCN4)c(F)c2)CC1 [Example 392, 7-{2′-[(1,1-Dioxidothiomorpholin-4-yl)sulfonyl]-3-fluorobiphenyl-4-yl}-3,4-dihydro-2H-pyrido[3,2-b][1,4]oxazine] | 1 | 16 | – | – | – |
| CNS(=O)(=O)c1ccccc1-c1ccc(-c2cnc(N)nc2)c(F)c1F [Example 465, 4′-(2-Aminopyrimidin-5-yl)-2′,3′-difluoro-N-methylbiphenyl-2-sulfonamide trifluoroacetic acid salt] | – | – | 186 | 957 | – |
| C[C@H](O)CNS(=O)(=O)c1ccccc1-c1ccc(-c2cnc(N)nc2)nc1 [Example 688, 2-[6-(2-Aminopyrimidin-5-yl)pyridin-3-yl]-N-[(2S)-2-hydroxypropyl]benzenesulfonamide] | – | – | 696 | 1180 | – |
| CC(=O)N1CCN(S(=O)(=O)c2ccccc2-c2ccc(-c3cnc(N)cn3)c(F)c2)CC1 [Example 57, 5-{2′-[(4-Acetylpiperazin-1-yl)sulfonyl]-3-fluorobiphenyl-4-yl}pyrazin-2-amine] | 15 | 252 | – | – | – |
| Nc1ncc(-c2ccc(-c3ccccc3-c3cnccn3)cc2F)cn1 [Example 839, 5-(3-Fluoro-2′-pyrazin-2-ylbiphenyl-4-yl)pyrimidin-2-amine] | – | – | 830 | 2790 | – |
| Nc1cnc(-c2ccc(-c3ccccc3S(=O)(=O)N3CCC[C@H]3CO)cc2F)cn1 [Example 95, (S)-(1-((4′-(5-Aminopyrazin-2-yl)-3′-fluoro-[1,1′-biphenyl]-2-yl)sulfonyl)pyrrolidin-2-yl)methanol] | 10 | 53 | – | – | – |
| Nc1cnc(-c2ccc(-c3ccccc3Oc3ccnc(N)c3)cc2F)cn1 [Example 638, 5-{2′-[(2-Aminopyridin-4-yl)oxy]-3-fluorobiphenyl-4-yl}pyrazin-2-amine] | – | – | 1.4 | 14.8 | – |
| Nc1cnc(-c2ccc(-c3ccccc3S(=O)(=O)NCC3(O)CCCCC3)cc2F)cn1 [Example 99, 4′-(5-Aminopyrazin-2-yl)-3′-fluoro-N-[(1-hydroxycyclohexyl)methyl]biphenyl-2-sulfonamide] | 2 | 30 | – | – | – |
| CCNS(=O)(=O)Cc1ccccc1-c1ccc(-c2cnc(N)cn2)c(F)c1 [Example 231, 1-[4′-(5-Aminopyrazin-2-yl)-3′-fluorobiphenyl-2-yl]-N-ethylmethanesulfonamide formate salt] | – | 564 | – | – | Ki (human FLAP; [5]): 135 nM |
| Nc1nnc(-c2ccc(-c3ccccc3S(=O)(=O)N3CCS(=O)(=O)CC3)cc2F)s1 [Example 440, 4-((4′-(5-Amino-1,3,4-thiadiazol-2-yl)-3′-fluoro-[1,1′-biphenyl]-2-yl)sulfonyl)thiomorpholine 1,1-dioxide] | – | – | 31 | 215 | – |
| Nc1cnc(-c2ccc(-c3ccccc3S(=O)(=O)N3CC[C@@H](CO)C3)cc2F)cn1 [Example 111, (R)-(1-((4′-(5-Aminopyrazin-2-yl)-3′-fluoro-[1,1′-biphenyl]-2-yl)sulfonyl)pyrrolidin-3-yl)methanol] | 4 | 58 | – | – | – |
| Nc1ccc(-c2ccc(-c3ccccc3S(=O)(=O)N3CCCCC3)cc2F)cn1 [Example 345, 5-(3-Fluoro-2′-(piperidin-1-ylsulfonyl)-[1,1′-biphenyl]-4-yl)pyridin-2-amine] | 28 | 259 | – | – | – |
| N#CCOc1ccccc1-c1ccc(-c2cnc(N)cn2)c(F)c1 [Example 642, {[4′-(5-Aminopyrazin-2-yl)-3′-fluorobiphenyl-2-yl]oxy}acetonitrile] | – | – | 78.8 | 981 | – |
| CC(C)(C)S(=O)(=O)c1ncccc1-c1ccc(-c2cnc(N)cn2)c(F)c1 [Example 812, 5-(4-(2-(tert-Butylsulfonyl)pyridin-3-yl)-2-fluorophenyl)pyrazin-2-amine formic acid salt] | – | – | – | 12 | Ki (human FLAP; [5]): 8.5 nM |
| Nc1cnc(-c2ccc(-c3ccccc3Sc3ncccn3)cc2F)cn1 [Example 213, 5-[3-Fluoro-2′-(pyrimidin-2-ylsulfanyl)biphenyl-4-yl]pyrazin-2-amine hydrochloride] | 2 | 25 | – | – | – |
| Nc1ccc(-c2ccc(-c3ccccc3S(=O)(=O)N3CCOCC3)cc2F)cn1 [Example 660, 5-(3-Fluoro-2′-(morpholinosulfonyl)-[1,1′-biphenyl]-4-yl)pyridin-2-amine] | – | – | 83.3 | > 10000 | – |
